Legend:
[1] = target: T1, ACSS2 in MDA-MB-468 cells (Homo sapiens, UniProt Q9NR19); assay: Cellular fatty-acid IC50: 13C-acetate incorporation into fatty acids (palmitate), LC-MS; format: cell-based; settings: hypoxic conditions (1% O2), 75% charcoal stripped serum, 5 hours, 13C-acetate into palmitate, read-out: Cellular Fatty-acid IC50 High Serum MDA468
T1 construct: endogenous in cells; host or cells: MDA-MB-468 cells, hypoxia (1% O2)
In short: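 MDA-MB-468 cells under hypoxia (1% O2) treated 5 h with compound (0.000512-1000 nM) in medium with 75% charcoal-stripped serum and 0.5 mM 13C-acetate. 13C-palmitate quantified by LC-MS (negative ion, RSIM). IC50 from inhibition versus no-compound control, background-subtracted, constrained 0–100% nonlinear fit.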

human ACSS1 protein = target: T2, human ACSS1 protein (Homo sapiens, UniProt Q9NUB1); assay: ACSS1 cell-free activity assay (pyrophosphatase-coupled, Biomol green); format: biochemical; settings: 5 nM human ACSS1, 30 minutes at room temperature, absorbance at 620 nm; for IC50: read-out: ACSS1 Biochemical IC50
T2 construct: purchased MyBioSource
T2 sequence (Q9NUB1 38-689): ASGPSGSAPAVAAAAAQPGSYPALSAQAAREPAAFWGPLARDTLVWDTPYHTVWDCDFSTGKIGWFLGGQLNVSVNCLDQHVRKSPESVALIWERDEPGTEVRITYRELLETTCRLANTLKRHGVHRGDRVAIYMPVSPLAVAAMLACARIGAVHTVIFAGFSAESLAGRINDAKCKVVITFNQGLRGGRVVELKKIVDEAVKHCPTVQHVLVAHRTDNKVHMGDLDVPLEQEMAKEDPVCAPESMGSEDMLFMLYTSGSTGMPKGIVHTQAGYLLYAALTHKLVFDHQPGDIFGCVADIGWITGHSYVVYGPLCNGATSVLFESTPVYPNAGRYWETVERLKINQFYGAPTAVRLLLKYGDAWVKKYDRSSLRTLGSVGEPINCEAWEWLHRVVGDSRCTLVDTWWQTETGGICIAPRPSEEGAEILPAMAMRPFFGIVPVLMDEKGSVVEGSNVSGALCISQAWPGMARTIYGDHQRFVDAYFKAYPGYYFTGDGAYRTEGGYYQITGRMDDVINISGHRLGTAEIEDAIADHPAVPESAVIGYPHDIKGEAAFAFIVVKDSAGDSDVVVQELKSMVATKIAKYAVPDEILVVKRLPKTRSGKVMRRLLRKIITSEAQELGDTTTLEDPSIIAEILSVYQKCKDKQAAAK
In short: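 5 nM human ACSS1 incubated 30 min at RT with compound in pH 7.5 Hepes buffer with 15 μM CoA, 5 mM acetate, 300 μM ATP, 2 mM MgCl2 and pyrophosphatase. Released phosphate detected with Biomol Green (30 min), absorbance 620 nm. IC50 from constrained non-linear regression.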

human ACSS2 protein = target: T3, human ACSS2 protein (Homo sapiens, UniProt Q9NR19); assay: ACSS2 cell-free activity assay (pyrophosphatase-coupled, Biomol green); settings: 10 nM human ACSS2, 90 minutes at 37 C, absorbance at 620 nm; read-out: ACSS2 Biochemical IC50
T3 construct: purchased OriGene Technologies, Inc
T3 sequence (Q9NR19 whole entry): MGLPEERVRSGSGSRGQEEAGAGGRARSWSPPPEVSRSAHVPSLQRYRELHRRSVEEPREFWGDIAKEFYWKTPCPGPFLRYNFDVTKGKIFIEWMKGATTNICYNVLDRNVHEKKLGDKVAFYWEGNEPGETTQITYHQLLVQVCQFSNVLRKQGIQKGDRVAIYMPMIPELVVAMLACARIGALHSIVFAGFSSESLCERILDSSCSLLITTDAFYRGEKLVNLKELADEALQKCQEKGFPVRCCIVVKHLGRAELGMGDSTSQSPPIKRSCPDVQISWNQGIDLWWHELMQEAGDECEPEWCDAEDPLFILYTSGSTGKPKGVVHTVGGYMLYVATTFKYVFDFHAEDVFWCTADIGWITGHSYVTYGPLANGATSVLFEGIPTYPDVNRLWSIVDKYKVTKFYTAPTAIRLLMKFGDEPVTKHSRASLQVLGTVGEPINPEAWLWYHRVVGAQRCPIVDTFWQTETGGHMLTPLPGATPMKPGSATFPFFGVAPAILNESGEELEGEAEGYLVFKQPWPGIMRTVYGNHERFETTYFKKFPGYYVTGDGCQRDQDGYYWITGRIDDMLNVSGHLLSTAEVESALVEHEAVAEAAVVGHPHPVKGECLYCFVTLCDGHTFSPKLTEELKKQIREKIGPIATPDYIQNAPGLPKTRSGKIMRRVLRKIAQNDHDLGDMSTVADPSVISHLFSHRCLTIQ
In short: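 10 nM human ACSS2 incubated 90 min at 37 C with compound, 300 μM ATP, 10 μM CoA, 5 mM NaAc in pH 7.5 Hepes buffer with 0.5 U/ml pyrophosphatase. Released phosphate detected with Biomol Green at 620 nm; IC50 by non-linear regression constrained to 0% and 100%.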

T1 sequence (Q9NR19 whole entry): as above

Row | IC50 [1] | ACSS1 Biochemical IC50 (nM) (human ACSS1 protein) | IC50 (human ACSS2 protein) | IC50 (human ACSS1 protein) | SMILES
1 | 20 to 50 nM | Inactive | 1 to 30 nM |  | CNc1cc(-c2c(C)cccc2C)cc(-c2[nH]c(C)c(C(=O)Nc3cccc(C(F)(F)C4CC4)c3)[n+]2[O-])c1 [Compound 147, 4-((3-(cyclopropyldifluoromethyl)phenyl)carbamoyl)-2-(2′,6′-dimethyl-5-(methylamino)-[1,1′-biphenyl]-3-yl)-5-methyl-1H-imidazole 3-oxide]
2 | < 20 nM | Inactive | < 1 nM |  | COc1ccc(-c2[nH]c(C)c(C(=O)Nc3cccc(-c4cnn(C)n4)c3)[n+]2[O-])cc1-c1c(C)cccc1C [Compound 201, 2-(6-methoxy-2′,6′-dimethyl-[1,1′-biphenyl]-3-yl)-5-methyl-4-((3-(2-methyl-2H-1,2,3-triazol-4-yl)phenyl)carbamoyl)-1H-imidazole 3-oxide]
3 | > 50 nM | Inactive | < 1 nM |  | CCC(F)(F)c1cccc(NC(=O)c2c(C)[nH]c(-c3cc(C)cc(-c4c(C)cccc4C)c3)[n+]2[O-])c1 [Compound 106, 4-((3-(1,1-difluoropropyl)phenyl)carbamoyl)-5-methyl-2-(2′,5,6′-trimethyl-[1,1′-biphenyl]-3-yl)-1H-imidazole 3-oxide]
4 | < 20 nM |  | < 1 nM | > 30 nM | CNC(=O)c1cccc(NC(=O)c2c(C)[nH]c(-c3cccc(-c4c(C)cccc4C)c3)[n+]2[O-])c1 [Compound 176, 2-(2′,6′-dimethyl-[1,1′-biphenyl]-3-yl)-5-methyl-4-((3-(methylcarbamoyl)phenyl)carbamoyl)-1H-imidazole 3-oxide]
5 | < 20 nM |  | < 1 nM | > 30 nM | CNC(=O)c1cccc(NC(=O)c2c(C)[nH]c(-c3ccc(F)c(-c4c(C)cccc4C)c3)[n+]2[O-])c1 [Compound 177, 2-(6-fluoro-2′,6′-dimethyl-[1,1′-biphenyl]-3-yl)-5-methyl-4-((3-(methylcarbamoyl)phenyl)carbamoyl)-1H-imidazole 3-oxide]
6 | < 20 nM | Inactive | < 1 nM |  | COc1ccc(-c2[nH]c(C)c(C(=O)Nc3cccc(C(=O)N(C)C)c3)[n+]2[O-])cc1-c1c(C)cccc1C [Compound 119, 4-((3-(dimethylcarbamoyl)phenyl)carbamoyl)-2-(6-methoxy-2′,6′-dimethyl-[1,1′-biphenyl]-3-yl)-5-methyl-1H-imidazole 3-oxide]
7 | < 20 nM | Inactive | < 1 nM |  | CCC(F)(F)c1cccc(NC(=O)c2c(C)[nH]c(-c3cccc(-c4ncncc4C)c3)[n+]2[O-])c1 [Compound 109, 4-((3-(1,1-difluoropropyl)phenyl)carbamoyl)-5-methyl-2-(3-(5-methylpyrimidin-4-yl)phenyl)-1H-imidazole 3-oxide]
8 | < 20 nM | Inactive | < 1 nM |  | CCC(F)(F)c1cccc(NC(=O)c2c(C)[nH]c(-c3ccc(OC)c(-c4c(C)cccc4C)n3)[n+]2[O-])c1 [Compound 149, 4-((3-(1,1-difluoropropyl)phenyl)carbamoyl)-2-(6-(2,6-dimethylphenyl)-5-methoxypyridin-2-yl)-5-methyl-1H-imidazole 3-oxide]
9 | < 20 nM | Inactive | < 1 nM |  | CCC(F)(F)c1cccc(NC(=O)c2c(C)[nH]c(-c3cc(-c4c(C)cccc4C)c(OC)cc3F)[n+]2[O-])c1 [Compound 125, 4-((3-(1,1-difluoropropyl)phenyl)carbamoyl)-2-(4-fluoro-6-methoxy-2′,6′-dimethyl-[1,1′-biphenyl]-3-yl)-5-methyl-1H-imidazole 3-oxide]
10 | < 20 nM | Inactive | < 1 nM |  | CCC(F)(F)c1cccc(NC(=O)c2c(C)[nH]c(-c3cccc(-c4c(C)cccc4C)c3)[n+]2[O-])c1 [Compound 107, 4-((3-(1,1-difluoropropyl)phenyl)carbamoyl)-2-(2′,6′-dimethyl-[1,1′-biphenyl]-3-yl)-5-methyl-1H-imidazole 3-oxide]
11 | < 20 nM | Inactive | < 1 nM |  | COc1ccc(-c2[nH]c(C)c(C(=O)Nc3cccc(C(N)=O)c3)[n+]2[O-])cc1-c1c(C)cccc1C [Compound 172, 4-((3-carbamoylphenyl)carbamoyl)-2-(6-methoxy-2′,6′-dimethyl-[1,1′-biphenyl]-3-yl)-5-methyl-1H-imidazole 3-oxide]
12 | 20 to 50 nM | Inactive | < 1 nM |  | Cc1cccc(C)c1-c1cc(-c2[nH]c(C)c(C(=O)Nc3cccc(C(F)(F)C4CC4)c3)[n+]2[O-])cc(C(C)O)c1 (stereo not drawn) [Compound 143, 4-((3-(cyclopropyldifluoromethyl)phenyl)carbamoyl)-2-(5-(1-hydroxyethyl)-2′,6′-dimethyl-[1,1′-biphenyl]-3-yl)-5-methyl-1H-imidazole 3-oxide]
13 | > 50 nM | Inactive | < 1 nM |  | CCC(F)(F)c1cccc(NC(=O)c2c(C)[nH]c(-c3cccc(-c4c(C)cccc4C)n3)[n+]2[O-])c1 [Compound 111, 4-((3-(1,1-difluoropropyl)phenyl)carbamoyl)-2-(6-(2,6-dimethylphenyl)pyridin-2-yl)-5-methyl-1H-imidazole 3-oxide]
14 | < 20 nM | Inactive | < 1 nM |  | COc1ccc(-c2[nH]c(C)c(C(=O)Nc3cccc(C(C)(F)F)c3)[n+]2[O-])cc1-c1c(C)cccc1C [Compound 120, 4-((3-(1,1-difluoroethyl)phenyl)carbamoyl)-2-(6-methoxy-2′,6′-dimethyl-[1,1′-biphenyl]-3-yl)-5-methyl-1H-imidazole 3-oxide]
15 | 20 to 50 nM | Inactive | < 1 nM |  | COc1ccc(-c2[nH]c(C)c(C(=O)Nc3cccc(C(F)(F)C4CC4)c3)[n+]2[O-])cc1-c1c(C)cccc1C [Compound 104, 4-((3-(cyclopropyldifluoromethyl)phenyl)carbamoyl)-2-(6-methoxy-2′,6′-dimethyl-[1,1′-biphenyl]-3-yl)-5-methyl-1H-imidazole 3-oxide]
16 | < 20 nM | Inactive | < 1 nM |  | CNC(=O)c1cccc(NC(=O)c2c(C)[nH]c(-c3ccc(OC)c(-c4c(C)cccc4C)n3)[n+]2[O-])c1 [Compound 186, 2-(6-(2,6-dimethylphenyl)-5-methoxypyridin-2-yl)-5-methyl-4-((3-(methylcarbamoyl)phenyl)carbamoyl)-1H-imidazole 3-oxide]
17 | 20 to 50 nM | Inactive | < 1 nM |  | Cc1cccc(C)c1-c1cc(C#N)cc(-c2[nH]c(C)c(C(=O)Nc3cccc(C(F)(F)C4CC4)c3)[n+]2[O-])c1 [Compound 135, 2-(5-cyano-2′,6′-dimethyl-[1,1′-biphenyl]-3-yl)-4-((3-(cyclopropyldifluoromethyl)phenyl)carbamoyl)-5-methyl-1H-imidazole 3-oxide]
18 | > 50 nM | Inactive | < 1 nM |  | Cc1cccc(C)c1-c1cc(-c2[nH]c(C)c(C(=O)Nc3cccc(C(F)(F)C4CC4)c3)[n+]2[O-])ccc1Cl [Compound 197, 2-(6-chloro-2′,6′-dimethyl-[1,1′-biphenyl]-3-yl)-4-((3-(cyclopropyldifluoromethyl)phenyl)carbamoyl)-5-methyl-1H-imidazole 3-oxide]
19 | < 20 nM | Inactive | < 1 nM |  | CCC(F)(F)c1cccc(NC(=O)c2c(C)[nH]c(-c3ccc(OC)c(-c4c(C)cccc4C)c3)[n+]2[O-])c1 [Compound 102, 4-((3-(1,1-difluoropropyl)phenyl)carbamoyl)-2-(6-methoxy-2′,6′-dimethyl-[1,1′-biphenyl]-3-yl)-5-methyl-1H-imidazole 3-oxide]
